Test results as given in PubChem BioAssay AID1259407 (Chemical Carcinogenesis Research Information System (CCRIS), 2018).
Activity calls are given as the source filed them. No rule for the calls is given here.

Tested on: CCRIS mutagenicity, Ames/micronucleus/aberration tests
Assay: CCRIS mutagenicity studies
[1] = Test System: AMES SALMONELLA TYPHIMURIUM, Strain/Indicator: TA98, Metabolic Activation: NONE, Method: STANDARD PLATE
[2] = Test System: AMES SALMONELLA TYPHIMURIUM, Strain/Indicator: TA98, Metabolic Activation: RAT, LIVER, S-9, AROCLOR 1254, Method: STANDARD PLATE
[3] = Test System: MOUSE LYMPHOMA, Strain/Indicator: L5178Y (TK+/TK-), Metabolic Activation: NONE, Method: SUSPENSION/PLATE
[4] = Test System: AMES SALMONELLA TYPHIMURIUM, Strain/Indicator: TA100, Metabolic Activation: NONE, Method: STANDARD PLATE
[5] = Test System: AMES SALMONELLA TYPHIMURIUM, Strain/Indicator: TA100, Metabolic Activation: RAT, LIVER, S-9, AROCLOR 1254, Method: STANDARD PLATE
[6] = Test System: AMES SALMONELLA TYPHIMURIUM, Strain/Indicator: TA1535, Metabolic Activation: NONE, Method: STANDARD PLATE
[7] = Test System: AMES SALMONELLA TYPHIMURIUM, Strain/Indicator: TA1535, Metabolic Activation: RAT, LIVER, S-9, AROCLOR 1254, Method: STANDARD PLATE
[8] = Test System: AMES SALMONELLA TYPHIMURIUM, Strain/Indicator: TA1537, Metabolic Activation: NONE, Method: STANDARD PLATE
[9] = Test System: AMES SALMONELLA TYPHIMURIUM, Strain/Indicator: TA1537, Metabolic Activation: RAT, LIVER, S-9, AROCLOR 1254, Method: STANDARD PLATE
[10] = Test System: AMES SALMONELLA TYPHIMURIUM, Strain/Indicator: TA1538, Metabolic Activation: NONE, Method: STANDARD PLATE
[11] = Test System: AMES SALMONELLA TYPHIMURIUM, Strain/Indicator: TA1538, Metabolic Activation: RAT, LIVER, S-9, AROCLOR 1254, Method: STANDARD PLATE

With `C1=Cc2c3ccc4ccccc4c3cc3cccc1c23` the mutagenic call (Test System: AMES SALMONELLA TYPHIMURIUM, Strain/Indicator: TA98, Metabolic Activation: HUMAN, LIVER, MICROSOMES, Method: STANDARD PLATE) was “active; positive”, the mutagenic call [1] was “inactive; negative” and the mutagenic call (Test System: AMES SALMONELLA TYPHIMURIUM, Strain/Indicator: TA98, Metabolic Activation: RAT, LIVER, HEPATOCYTES, Method: PREINCUBATION) was “active; positive”. The mutagenic call (Test System: AMES SALMONELLA TYPHIMURIUM, Strain/Indicator: TA98, Metabolic Activation: RAT, LIVER, MICROSOMES, AROCLOR 1254, Method: STANDARD PLATE) was “active; positive”, the mutagenic call (Test System: AMES SALMONELLA TYPHIMURIUM, Strain/Indicator: TA98, Metabolic Activation: RAT, LIVER, MICROSOMES, Method: STANDARD PLATE) was “active; positive” and the mutagenic call (Test System: AMES SALMONELLA TYPHIMURIUM, Strain/Indicator: TA98, Metabolic Activation: RAT, LIVER, S-9, AROCLOR 1254 (0.4, 0.8, 1.15 OR 1.5 MG/PLATE), Method: STANDARD PLATE) was “active; positive”. For the same molecule, the mutagenic call [2] was “active; positive”, the mutagenic call (Test System: AMES SALMONELLA TYPHIMURIUM, Strain/Indicator: TA98, Metabolic Activation: RAT, LUNG, MICROSOMES, AROCLOR 1254, Method: STANDARD PLATE) was “active; positive” and the mutagenic call (Test System: AMES SALMONELLA TYPHIMURIUM, Strain/Indicator: TA98, Metabolic Activation: RAT, LUNG, MICROSOMES, Method: STANDARD PLATE) was “inactive; negative”. For the same molecule, the mutagenic call (Test System: CHINESE HAMSTER OVARY, Strain/Indicator: V-79/6-THIOGUANINE, Metabolic Activation: RAT, LIVER, S-9, AROCLOR 1254, Method: FLASK ASSAY) was “active; positive”, the mutagenic call (Test System: CHINESE HAMSTER OVARY, Strain/Indicator: V-79/6-THIOGUANINE, Metabolic Activation: SHE CELL MEDIATED, Method: FLASK ASSAY) was “inactive; negative” and the mutagenic call (Test System: CHINESE HAMSTER V-79, Strain/Indicator: V-79/6-THIOGUANINE, Metabolic Activation: RAT, LIVER, S-9, AROCLOR 1254, Method: SUSPENSION/PLATE) was “active; positive”. For the same molecule, the mutagenic call (Test System: UDS RAT HEPATOCYTES, Strain/Indicator: THY INCORP, Metabolic Activation: NONE, Method: LIQUID SCINTILLATION COUNTING) was “active; positive”.

For `CCOC(=O)/C=C\C(=O)OCC`, the mutagenic call [3] was “active; positive”.

`CCCCOCCOCCOCc1cc2c(cc1CCC)OCO2` was tested, and the mutagenic call (End Point: IN VITRO CHROMOSOMAL ABERRATIONS, Test System: CHINESE HAMSTER OVARY CELLS, Metabolic Activation: NONE) was “inactive; negative; precipitation occurred at 287 ug/ml”, the mutagenic call (End Point: IN VITRO CHROMOSOMAL ABERRATIONS, Test System: CHINESE HAMSTER OVARY CELLS, Metabolic Activation: RAT, LIVER, S-9, AROCLOR 1254) was “inactive; negative; precipitation occurred at 496 ug/ml” and the mutagenic call (Test System: AMES SALMONELLA TYPHIMURIUM, Strain/Indicator: TA97, Metabolic Activation: NONE, Method: PREINCUBATION) was “inactive; negative”. For the same molecule, the mutagenic call (Test System: AMES SALMONELLA TYPHIMURIUM, Strain/Indicator: TA97, Metabolic Activation: RAT, LIVER, S-9, AROCLOR 1254, Method: PREINCUBATION) was “inactive; negative”, the mutagenic call [1] was “inactive; negative” and the mutagenic call [2] was “inactive; negative”. For the same molecule, the mutagenic call [4] was “inactive; negative”, the mutagenic call [5] was “inactive; negative” and the mutagenic call (Test System: AMES SALMONELLA TYPHIMURIUM, Strain/Indicator: TA102, Metabolic Activation: NONE, Method: PREINCUBATION) was “inactive; negative”. The mutagenic call (Test System: AMES SALMONELLA TYPHIMURIUM, Strain/Indicator: TA102, Metabolic Activation: RAT, LIVER, S-9, AROCLOR 1254, Method: PREINCUBATION) was “inactive; negative”, the mutagenic call [6] was “inactive; negative” and the mutagenic call [7] was “inactive; negative”. For the same molecule, the mutagenic call [8] was “inactive; negative”, the mutagenic call [9] was “inactive; negative” and the mutagenic call [10] was “inactive; negative”. The mutagenic call [11] was “inactive; negative”, the mutagenic call (Test System: CHINESE HAMSTER OVARY, Strain/Indicator: CHO-K1-BH4 (HGPRT)/6-THIOGUANINE, Metabolic Activation: NONE) was “inactive; negative” and the mutagenic call (Test System: CHINESE HAMSTER OVARY, Strain/Indicator: CHO-K1-BH4 (HGPRT)/6-THIOGUANINE, Metabolic Activation: RAT, LIVER, S-9, AROCLOR 1254) was “inactive; negative”. The mutagenic call (Test System: UDS HUMAN HEPATOCYTES, Strain/Indicator: THY INCORP, Metabolic Activation: NONE, Method: AUTORADIOGRAPHY) was “inactive; negative” and the mutagenic call (Test System: UDS RAT HEPATOCYTES, Strain/Indicator: THY INCORP, Metabolic Activation: NONE, Method: AUTORADIOGRAPHY) was “inactive; negative”.

`CSC(C)(C)/C=N/O` was tested, and the mutagenic call (End Point: IN VITRO CHROMOSOMAL ABERRATIONS, Test System: CHO-LB CELLS, Metabolic Activation: NONE) was “inactive; negative”, the mutagenic call (End Point: IN VITRO CHROMOSOMAL ABERRATIONS, Test System: CHO-LB CELLS, Metabolic Activation: RAT, LIVER, S-9, AROCLOR 1254) was “inactive; negative” and the mutagenic call (Test System: AMES SALMONELLA TYPHIMURIUM, Strain/Indicator: TA98, Metabolic Activation: HAMSTER, LIVER, S-9, AROCLOR 1254, Method: STANDARD PLATE) was “inactive; negative”. For the same molecule, the mutagenic call [1] was “inactive; negative”, the mutagenic call [2] was “inactive; negative” and the mutagenic call (Test System: AMES SALMONELLA TYPHIMURIUM, Strain/Indicator: TA100, Metabolic Activation: HAMSTER, LIVER, S-9, AROCLOR 1254, Method: STANDARD PLATE) was “inactive; negative”. The mutagenic call [4] was “inactive; negative”, the mutagenic call [5] was “inactive; negative” and the mutagenic call (Test System: AMES SALMONELLA TYPHIMURIUM, Strain/Indicator: TA1535, Metabolic Activation: HAMSTER, LIVER, S-9, AROCLOR 1254, Method: STANDARD PLATE) was “inactive; negative”. For the same molecule, the mutagenic call [6] was “inactive; negative”, the mutagenic call [7] was “inactive; negative” and the mutagenic call (Test System: AMES SALMONELLA TYPHIMURIUM, Strain/Indicator: TA1537, Metabolic Activation: HAMSTER, LIVER, S-9, AROCLOR 1254, Method: STANDARD PLATE) was “inactive; negative”. For the same molecule, the mutagenic call [8] was “inactive; negative”, the mutagenic call [9] was “inactive; negative” and the mutagenic call (Test System: AMES SALMONELLA TYPHIMURIUM, Strain/Indicator: TA1538, Metabolic Activation: HAMSTER, LIVER, S-9, AROCLOR 1254, Method: STANDARD PLATE) was “inactive; negative”. The mutagenic call [10] was “inactive; negative”, the mutagenic call [11] was “inactive; negative” and the mutagenic call [3] was “inactive; negative. reevaluation of results: equivocal”. For the same molecule, the mutagenic call (Test System: MOUSE LYMPHOMA, Strain/Indicator: L5178Y (TK+/TK-), Metabolic Activation: RAT, LIVER, S-9, AROCLOR 1254, Method: SUSPENSION/PLATE) was “inactive; negative. reevaluation of results: negative”.

In the case of `Nc1ccc2c([nH]c3ccccc32)c1[N+](=O)[O-]`, the mutagenic call [1] was “active; positive”, the mutagenic call (Test System: AMES SALMONELLA TYPHIMURIUM, Strain/Indicator: TA98, Metabolic Activation: RAT, LIVER, S-9, PHENOBARBITAL, Method: STANDARD PLATE) was “active; positive” and the mutagenic call [4] was “active; positive”. For the same molecule, the mutagenic call (Test System: AMES SALMONELLA TYPHIMURIUM, Strain/Indicator: TA100, Metabolic Activation: RAT, LIVER, S-9, PHENOBARBITAL, Method: STANDARD PLATE) was “active; positive”, the mutagenic call [8] was “active; positive” and the mutagenic call (Test System: AMES SALMONELLA TYPHIMURIUM, Strain/Indicator: TA1537, Metabolic Activation: RAT, LIVER, S-9, PHENOBARBITAL, Method: STANDARD PLATE) was “active; positive”. For the same molecule, the mutagenic call [10] was “active; positive”, the mutagenic call (Test System: AMES SALMONELLA TYPHIMURIUM, Strain/Indicator: TA1538, Metabolic Activation: RAT, LIVER, S-9, PHENOBARBITAL, Method: STANDARD PLATE) was “active; positive” and the mutagenic call (Test System: AMES SALMONELLA TYPHIMURIUM, Strain/Indicator: TA1977, Metabolic Activation: NONE, Method: STANDARD PLATE) was “inactive; negative”. The mutagenic call (Test System: AMES SALMONELLA TYPHIMURIUM, Strain/Indicator: TA1977, Metabolic Activation: RAT, LIVER, S-9, PHENOBARBITAL, Method: STANDARD PLATE) was “active; positive”.
